The values below come from patent US20240239752A1, “BICYCLIC HETEROAROMATIC INHIBITORS OF KLK5” (BioCryst Pharmaceuticals, Inc., priority 2021, published 2024).

pIC50: −log10 of the molar value.

The target in this test is T1, recombinant human KLK5 (Homo sapiens, UniProt Q9Y337).
T1 construct: purchased Novoprotein or R&D Systems C415 or 1108-SE
T1 sequence (Q9Y337 23-293): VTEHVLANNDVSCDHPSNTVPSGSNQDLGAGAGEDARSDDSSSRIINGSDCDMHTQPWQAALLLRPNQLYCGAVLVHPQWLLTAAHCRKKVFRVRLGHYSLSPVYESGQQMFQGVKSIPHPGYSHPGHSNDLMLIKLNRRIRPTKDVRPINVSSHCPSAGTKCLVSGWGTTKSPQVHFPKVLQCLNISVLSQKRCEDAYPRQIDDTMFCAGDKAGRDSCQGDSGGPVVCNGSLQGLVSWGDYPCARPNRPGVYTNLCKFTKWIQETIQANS
As to the kind of experiment: Kallikrein (KLK) 5 enzymatic assay (Boc-VPR-AMC fluorogenic substrate). It counts as biochemical. The note with it: recombinant human KLK5 0.1 μg/well, Boc-VPR-AMC 100 μM, pH 7.5, room temperature, 1% DMSO; tested a minimum of three times. In a few lines:
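Recombinant human KLK5 (0.1 μg/well) was preincubated with compound at room temperature in 0.1 M NaH2PO4, pH 7.5, 1% DMSO, then started with 100 μM Boc-VPR-AMC. The rate was followed at 380/460 nm, and IC50 came from percent inhibition relative to enzyme alone, with at least three runs.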
Broadly, the pIC50 is −log10 of the IC50, conventionally taken in molar units. As for `N=C(N)c1cccc(-c2cc(OCc3nccs3)c3occ(COc4ccccc4CC(=O)O)c3c2)c1` [Compound 228f, 2-(2-((5-(3-carbamimidoylphenyl)-7-(thiazol-2-ylmethoxy)benzofuran-3-yl)methoxy)phenyl)acetic acid], the pIC50 was greater than 6.00.

On to `COc1cc(-c2ccc3ccnc(N)c3c2)cc2c(COc3ccccc3CC(=O)O)coc12` [Compound 229f, 2-(2-((5-(1-aminoisoquinolin-7-yl)-7-methoxybenzofuran-3-yl)methoxy)phenyl)acetic acid], for which the pIC50 was 5.00 to 6.00.

As to `COc1cc(-c2ccc3ccnc(N)c3c2)cc2c(COc3cc(C)ccc3CC(=O)O)coc12` [Compound 230d, 2-(2-((5-(1-aminoisoquinolin-7-yl)-7-methoxybenzofuran-3-yl)methoxy)-4-methylphenyl)acetic acid], the pIC50 is 5.00 to 6.00.

As to `Nc1nccc2ccc(-c3cc4c(COc5ccccc5CC(=O)O)cccc4o3)cc12` [Compound 231f, 2-(2-((2-(1-aminoisoquinolin-7-yl)benzofuran-4-yl)methoxy)phenyl)acetic acid], the pIC50 was 5.00 to 6.00.

Turning to `Nc1nccc2c(-c3cc4c(COc5ccccc5CC(=O)O)cccc4o3)cccc12` [Compound 232b, 2-(2-((2-(1-aminoisoquinolin-5-yl)benzofuran-4-yl)methoxy)phenyl)acetic acid], the negative-log IC50 (pIC50) was less than 5.00.

For `Cc1cc(-c2ccc3ccnc(N)c3c2)cc2c(COc3ccccc3CC(=O)O)coc12` [Compound 233f, 2-(2-((5-(1-aminoisoquinolin-7-yl)-7-methylbenzofuran-3-yl)methoxy)phenyl)acetic acid], the pIC50 was 5.00 to 6.00.

Consider `COc1ccc(CC(=O)O)c(OCc2coc3c(OC)cc(-c4ccc5ccnc(N)c5c4)cc23)c1` [Compound 234c, 2-(2-((5-(1-aminoisoquinolin-7-yl)-7-methoxybenzofuran-3-yl)methoxy)-4-methoxyphenyl)acetic acid], for which the pIC50 was less than 5.00.

For the compound `COc1cc(-c2cccc3c(N)nccc23)cc2c(COc3ccccc3CC(=O)O)coc12` [Compound 235b, 2-(2-((5-(1-aminoisoquinolin-5-yl)-7-methoxybenzofuran-3-yl)methoxy)phenyl)acetic acid], the negative logarithm of the IC50 (pIC50) is 5.00 to 6.00.

Regarding `COc1cc(-c2cccc(C(=N)N)c2)cc2c(COc3ccccc3CC(=O)O)coc12` [Compound 236b, 2-(2-((5-(3-carbamimidoylphenyl)-7-methoxybenzofuran-3-yl)methoxy)phenyl)acetic acid], the pIC50 is greater than 6.00.

Consider `COc1cc(-c2ccc3ccnc(N)c3c2)cc2c(COc3c(C)cccc3CC(=O)O)coc12` [Compound 237c, 2-(2-((5-(1-aminoisoquinolin-7-yl)-7-methoxybenzofuran-3-yl)methoxy)-3-methylphenyl)acetic acid], for which the pIC50 is less than 5.00.

On to `COc1c(C(=N)N)cccc1-c1ccc2c(c1)c(COc1ccccc1CC(=O)O)nn2C1CCC1` [Compound 238d, 2-(2-((5-(3-carbamimidoyl-2-methoxyphenyl)-1-cyclobutyl-1H-indazol-3-yl)methoxy)phenyl)acetic acid], for which the pIC50 was greater than 6.00.

As to `Cc1cccc(OCc2nn(C3CCCC3)c3ccc(-c4cccc5c(N)nccc45)cc23)c1CC(=O)O` [Compound 239f, 2-(2-((5-(1-aminoisoquinolin-5-yl)-1-cyclopentyl-1H-indazol-3-yl)methoxy)-6-methylphenyl)acetic acid], the pIC50 was greater than 6.00.

Consider `Cc1cccc(OCc2nn(C3CCCC3)c3ccc(-c4ccc5ccnc(N)c5c4)cc23)c1CC(=O)O` [Compound 240b, 2-(2-((5-(1-aminoisoquinolin-7-yl)-1-cyclopentyl-1H-indazol-3-yl)methoxy)-6-methylphenyl)acetic acid], for which the pIC50 was greater than 6.00.

With `CC(C(=O)O)c1ccccc1OCc1nn(C2CCOC2)c2ccc(-c3cccc4c(N)nccc34)cc12` (stereo not drawn) [Compound 241f, 2-(2-((5-(1-aminoisoquinolin-5-yl)-1-(tetrahydrofuran-3-yl)-1H-indazol-3-yl)methoxy)phenyl)propanoic acid], the pIC50 is greater than 6.00.

On to `CC(C(=O)O)c1ccccc1OCc1nn(C2CCOC2)c2ccc(-c3ccc4ccnc(N)c4c3)cc12` (stereo not drawn) [Compound 242b, 2-(2-((5-(1-aminoisoquinolin-7-yl)-1-(tetrahydrofuran-3-yl)-1H-indazol-3-yl)methoxy)phenyl)propanoic acid], for which the pIC50 is greater than 6.00.

Regarding `Nc1nccc2c(-c3ccc4c(c3)c(COc3ccccc3CC(=O)O)nn4[C@H]3CCOC3)cccc12` [Compound 243h, (S)-2-(2-((5-(1-aminoisoquinolin-5-yl)-1-(tetrahydrofuran-3-yl)-1H-indazol-3-yl)methoxy)phenyl)acetic acid], the pIC50 was greater than 6.00.

As to `Nc1nccc2ccc(-c3ccc4c(c3)c(COc3ccccc3CC(=O)O)nn4[C@H]3CCOC3)cc12` [Compound 244b, (S)-2-(2-((5-(1-aminoisoquinolin-7-yl)-1-(tetrahydrofuran-3-yl)-1H-indazol-3-yl)methoxy)phenyl)acetic acid], the pIC50 was greater than 6.00.

In the case of `Nc1nccc2c(-c3ccc4c(c3)c(COc3ccccc3CC(=O)O)nn4[C@@H]3CCOC3)cccc12` [Compound 245h, (R)-2-(2-((5-(1-aminoisoquinolin-5-yl)-1-(tetrahydrofuran-3-yl)-1H-indazol-3-yl)methoxy)phenyl)acetic acid], the pIC50 is greater than 6.00.

For the compound `Nc1nccc2ccc(-c3ccc4c(c3)c(COc3ccccc3CC(=O)O)nn4[C@@H]3CCOC3)cc12` [Compound 246b, (R)-2-(2-((5-(1-aminoisoquinolin-7-yl)-1-(tetrahydrofuran-3-yl)-1H-indazol-3-yl)methoxy)phenyl)acetic acid], the pIC50 was greater than 6.00.

`Cc1cccc(OCc2nn(C3CCOC3)c3ccc(-c4cccc5c(N)nccc45)cc23)c1CC(=O)O` (stereo not drawn) [Compound 247c, 2-(2-((5-(1-aminoisoquinolin-5-yl)-1-(tetrahydrofuran-3-yl)-1H-indazol-3-yl)methoxy)-6-methylphenyl)acetic acid]: the pIC50 was greater than 6.00.

As to `Cc1cccc(OCc2nn(C3CCOC3)c3ccc(-c4ccc5ccnc(N)c5c4)cc23)c1CC(=O)O` (stereo not drawn) [Compound 248b, 2-(2-((5-(1-aminoisoquinolin-7-yl)-1-(tetrahydrofuran-3-yl)-1H-indazol-3-yl)methoxy)-6-methylphenyl)acetic acid], the pIC50 is greater than 6.00.

For `Nc1nccc2c(-c3ccc4c(c3)c(COc3ccccc3CC(=O)O)nn4C3CCOC3)cccc12` (stereo not drawn) [Compound 249b, 2-(2-((5-(1-aminoisoquinolin-5-yl)-1-(tetrahydrofuran-3-yl)-1H-indazol-3-yl)methoxy)phenyl)acetic acid], the pIC50 was greater than 6.00.

Consider `Nc1nccc2ccc(-c3ccc4c(c3)c(COc3ccccc3CC(=O)O)nn4C3CCOC3)cc12` (stereo not drawn) [Compound 250b, 2-(2-((5-(1-aminoisoquinolin-7-yl)-1-(tetrahydrofuran-3-yl)-1H-indazol-3-yl)methoxy)phenyl)acetic acid], for which the pIC50 is greater than 6.00.

`Nc1nccc2c(-c3ccc4c(c3)c(COc3ccccc3CC(=O)O)nn4CC3CC3)cccc12` [Compound 251c, 2-(2-((5-(1-aminoisoquinolin-5-yl)-1-(cyclopropylmethyl)-1H-indazol-3-yl)methoxy)phenyl)acetic acid]: the pIC50 is greater than 6.00.
